These compounds were tested against mouse TRPM3α2 (mTRPM3) ion channel (Mus musculus (Mouse), UniProt J9SQF3) (assay: TRPM3 ion channel driven Ca2+ uptake, Fluo-4 AM assay, mTRPM3alpha2 overexpressing flip-in HEK293 cells stimulated with pregnenolone sulfate). Conditions: PS (50 μM) stimulated, cpd 001-199.
Assay type: cell-based
Summary of the method: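 Flip-in HEK293 cells loaded with Fluo-4 AM were added to plates holding compound plus 50 μM pregnenolone sulfate in Ca2+-containing Krebs buffer. Fluorescence (ex 485/em 535 nm) read directly after cell addition; % inhibition relative to PS-stimulated vehicle and positive-control inhibitor.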

mouse TRPM3α2 (mTRPM3) ion channel, sequence (J9SQF3 other isoform, or with tags, fused parts or gaps): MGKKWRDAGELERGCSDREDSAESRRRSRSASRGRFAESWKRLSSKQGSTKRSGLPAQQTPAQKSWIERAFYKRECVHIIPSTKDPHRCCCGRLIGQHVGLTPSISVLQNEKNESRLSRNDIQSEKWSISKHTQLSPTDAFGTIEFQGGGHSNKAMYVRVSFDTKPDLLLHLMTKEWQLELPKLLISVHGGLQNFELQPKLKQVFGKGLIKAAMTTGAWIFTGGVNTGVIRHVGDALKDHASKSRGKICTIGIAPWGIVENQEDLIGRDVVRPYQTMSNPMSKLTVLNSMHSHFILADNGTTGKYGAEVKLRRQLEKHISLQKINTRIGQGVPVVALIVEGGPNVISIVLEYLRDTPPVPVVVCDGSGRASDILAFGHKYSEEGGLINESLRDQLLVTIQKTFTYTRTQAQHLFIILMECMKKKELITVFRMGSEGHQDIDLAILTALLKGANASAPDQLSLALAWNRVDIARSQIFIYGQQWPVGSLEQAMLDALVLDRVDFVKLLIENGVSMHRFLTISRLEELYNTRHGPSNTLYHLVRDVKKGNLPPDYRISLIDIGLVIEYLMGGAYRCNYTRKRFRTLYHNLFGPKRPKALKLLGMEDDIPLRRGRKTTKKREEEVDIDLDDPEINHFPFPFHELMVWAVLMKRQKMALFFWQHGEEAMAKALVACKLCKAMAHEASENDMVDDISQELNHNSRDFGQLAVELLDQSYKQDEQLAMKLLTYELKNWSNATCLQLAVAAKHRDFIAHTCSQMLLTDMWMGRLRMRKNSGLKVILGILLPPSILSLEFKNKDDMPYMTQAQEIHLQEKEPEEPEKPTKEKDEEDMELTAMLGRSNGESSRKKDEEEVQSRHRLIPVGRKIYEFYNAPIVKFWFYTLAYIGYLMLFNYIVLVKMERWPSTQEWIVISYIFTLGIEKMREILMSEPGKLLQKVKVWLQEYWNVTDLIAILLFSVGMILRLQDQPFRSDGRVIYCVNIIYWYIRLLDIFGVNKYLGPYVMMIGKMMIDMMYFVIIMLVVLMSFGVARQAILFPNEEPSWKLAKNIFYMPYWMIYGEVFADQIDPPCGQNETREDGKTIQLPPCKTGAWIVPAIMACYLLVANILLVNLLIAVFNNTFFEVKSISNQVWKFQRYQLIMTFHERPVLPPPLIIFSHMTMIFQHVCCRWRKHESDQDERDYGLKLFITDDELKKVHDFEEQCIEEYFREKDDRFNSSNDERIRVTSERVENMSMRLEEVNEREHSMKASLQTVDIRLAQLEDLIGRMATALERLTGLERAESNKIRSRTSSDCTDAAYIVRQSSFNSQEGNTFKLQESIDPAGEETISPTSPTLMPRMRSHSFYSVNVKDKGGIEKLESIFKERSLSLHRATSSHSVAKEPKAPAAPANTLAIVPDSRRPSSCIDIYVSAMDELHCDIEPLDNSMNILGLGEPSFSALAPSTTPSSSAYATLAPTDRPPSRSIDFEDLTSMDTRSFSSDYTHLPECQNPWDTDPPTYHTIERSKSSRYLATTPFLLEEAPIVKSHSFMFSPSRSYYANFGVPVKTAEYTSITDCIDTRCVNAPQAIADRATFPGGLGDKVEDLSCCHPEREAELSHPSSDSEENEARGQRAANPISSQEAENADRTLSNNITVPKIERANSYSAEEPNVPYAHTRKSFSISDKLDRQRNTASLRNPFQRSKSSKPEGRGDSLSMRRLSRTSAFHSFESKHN

Row | IC50 [nM] | SMILES
1 | < 1000 | Cc1oc2ccc(OCc3cccnc3C(F)(F)F)cc2c1C(=O)NC(C)(C)CO [compound 109, N-(1-hydroxy-2-methylpropan-2-yl)-2-methyl-5-((2-(trifluoromethyl)pyridin-3-yl)methoxy)benzofuran-3-carboxamide]
2 | < 1000 | Cc1ncsc1COc1ccc2oc(C)c(C(=O)NC3(CCO)CCC3)c2c1 [compound 114, N-(1-(2-hydroxyethyl)cyclobutyl)-2-methyl-5-((4-methylthiazol-5-yl)methoxy)benzofuran-3-carboxamide]
3 | < 1000 | Cc1oc2ccc(OCc3cccnc3C(F)(F)F)cc2c1C(=O)NC1(CO)CCC1 [compound 117, N-(1-(hydroxymethyl)cyclobutyl)-2-methyl-5-((2-(trifluoromethyl)pyridin-3-yl)methoxy)benzofuran-3-carboxamide]
4 | < 1000 | Cc1ncsc1COc1ccc2oc(C)c(C(=O)NC3(C(N)=O)COC3)c2c1 [compound 119, N-(3-carbamoyloxetan-3-yl)-2-methyl-5-((4-methylthiazol-5-yl)methoxy)benzofuran-3-carboxamide]
5 | < 1000 | Cc1oc2ccc(OCc3cccnc3C(F)(F)F)cc2c1C(=O)NC1(CCO)CCC1 [compound 127, N-(1-(2-hydroxyethyl)cyclobutyl)-2-methyl-5-((2-(trifluoromethyl)pyridin-3-yl)methoxy)benzo-furan-3-carboxamide]
6 | < 1000 | Cc1ncsc1COc1ccc2oc(C)c(C(=O)NC3(CCO)COC3)c2c1 [compound 128, N-(3-(2-hydroxyethyl)oxetan-3-yl)-2-methyl-5-((4-methylthiazol-5-yl)methoxy)benzofuran-3-carboxamide]
7 | < 1000 | Cc1oc2ccc(OCc3cccnc3C(F)(F)F)cc2c1C(=O)NC1(CCO)COC1 [compound 129, N-(3-(2-hydroxyethyl)oxetan-3-yl)-2-methyl-5-((2-(trifluoromethyl)pyridin-3-yl)methoxy) -benzofuran-3-carboxamide]
8 | < 1000 | Cc1oc2ccc(OCc3cccnc3C(F)(F)F)cc2c1C(=O)NC1(CN)CCC1 [compound 136, N-(1-(aminomethyl)cyclobutyl)-2-methyl-5-((2-(trifluoromethyl)pyridin-3-yl)methoxy)benzofuran-3-carboxamide]
9 | < 1000 | Cc1ncsc1COc1ccc2oc(C)c(C(=O)NC3(CO)CC3)c2c1 [compound 139, N-(1-(hydroxymethyl)cyclopropyl)-2-methyl-5-((4-methylthiazol-5-yl)methoxy)benzofuran-3-carboxamide]
10 | < 1000 | Cc1oc2ccc(OCc3cccnc3C(F)(F)F)cc2c1C(=O)NC1(CN(C)C)CCC1 [compound 140, N-(1-((dimethylamino)methyl)cyclobutyl)-2-methyl-5-((2-(trifluoromethyl)pyridin-3-yl)methoxy) -benzofuran-3-carboxamide]
11 | < 1000 | Cc1ncsc1COc1ccc2oc(C)c(C(=O)NC3(CO)COC3)c2c1 [compound 142, N-(3-(hydroxymethyl)oxetan-3-yl)-2-methyl-5-((4-methylthiazol-5-yl)methoxy)benzofuran-3-carboxamide]
12 | < 1000 | Cc1oc2ccc(OCc3cccnc3C(F)(F)F)cc2c1C(=O)Nc1cnn(C)c1 [compound 143, 2-methyl-N-(1-methyl-1H-pyrazol-4-yl)-5-((2-(trifluoromethyl)pyridin-3-yl)methoxy)benzofuran-3-carboxamide]
13 | < 1000 | Cc1ncsc1COc1ccc2oc(C)c(C(=O)Nc3cc[nH]n3)c2c1 [compound 144, 2-methyl-5-((4-methylthiazol-5-yl)methoxy)-N-(1H-pyrazol-3-yl)benzofuran-3-carboxamide]
14 | < 1000 | Cc1ncsc1COc1ccc2oc(C)c(C(=O)NC3(CNCC(F)(F)F)CCC3)c2c1 [compound 145, 2-methyl-5-((4-methylthiazol-5-yl)methoxy)-N-(1-(((2,2,2-trifluoroethyl)amino)methyl)cyclobutyl) -benzofuran-3-carboxamide]
15 | < 1000 | Cc1oc2ccc(OCc3cccnc3C(F)(F)F)cc2c1C(=O)Nc1ccn(C)n1 [compound 146, 2-methyl-N-(1-methyl-1H-pyrazol-3-yl)-5-((2-(trifluoromethyl)pyridin-3-yl)methoxy)benzofuran-3-carboxamide]
16 | < 1000 | Cc1ncsc1COc1ccc2oc(C)c(C(=O)Nc3cn[nH]c3)c2c1 [compound 150, 2-methyl-5-((4-methylthiazol-5-yl)methoxy)-N-(1H-pyrazol-4-yl)benzofuran-3-carboxamide]
17 | < 1000 | Cc1ncsc1COc1ccc2oc(C)c(C(=O)Nc3cnn(C)c3)c2c1 [compound 152, 2-methyl-N-(1-methyl-1H-pyrazol-4-yl)-5-((4-methylthiazol-5-yl)methoxy)benzofuran-3-carboxamide]
18 | < 1000 | Cc1oc2ccc(OCc3cccnc3C(F)(F)F)cc2c1C(=O)NC1(CNCC(F)(F)F)CCC1 [compound 153, 2-methyl-N-(1-(((2,2,2-trifluoroethyl)amino)methyl)cyclobutyl)-5-((2-(trifluoromethyl)pyridin-3-yl)methoxy)benzofuran-3-carboxamide]

Row | IC50 [nM] | SMILES
19 | < 1000 | Cc1oc2ccc(OCc3cccnc3C(F)(F)F)cc2c1C(=O)Nc1ccnn1C [compound 154, 2-methyl-N-(1-methyl-1H-pyrazol-5-yl)-5-((2-(trifluoromethyl)pyridin-3-yl)methoxy)benzofuran-3-carboxamide]
20 | < 1000 | Cc1ncsc1COc1ccc2oc(C)c(C(=O)NC3CC4(COC4)C3)c2c1 [compound 156, 2-methyl-5-((4-methylthiazol-5-yl)methoxy)-N-(2-oxaspiro[3,3]heptan-6-yl)benzofuran-3-carboxamide]
21 | < 1000 | Cc1oc2ccc(OCc3cccnc3C(F)(F)F)cc2c1C(=O)Nc1cn[nH]c1 [compound 158, 2-methyl-N-(1H-pyrazol-4-yl)-5-((2-(trifluoromethyl)pyridin-3-yl)methoxy)benzofuran-3-carboxamide]
22 | < 1000 | Cc1ncsc1COc1ccc2oc(C)c(C(=O)Nc3ccn(C)n3)c2c1 [compound 161, 2-methyl-N-(1-methyl-1H-pyrazol-3-yl)-5-((4-methylthiazol-5-yl)methoxy)benzofuran-3-carboxamide]
23 | < 1000 | Cc1ncsc1COc1ccc2oc(C)c(C(=O)NC3CCN(CC(F)(F)F)CC3)c2c1 [compound 166, 2-methyl-5-((4-methylthiazol-5-yl)methoxy)-N-(1-(2,2,2-trifluoroethyl)piperidin-4-yl)benzofuran-3-carboxamide]
24 | < 1000 | Cc1oc2ccc(OCc3cccnc3C(F)(F)F)cc2c1C(=O)NC1CC2(COC2)C1 [compound 167, 2-methyl-N-(2-oxaspiro[3.3]heptan-6-yl)-5-((2-(trifluoromethyl)pyridin-3-yl)methoxy)benzofuran-3-carboxamide]
25 | < 1000 | Cc1oc2ccc(OCc3cccnc3C(F)(F)F)cc2c1C(=O)NC1CCN(CC(F)(F)F)CC1 [compound 168, 2-methyl-N-(1-(2,2,2-trifluoroethyl)piperidin-4-yl)-5-((2-(trifluoromethyl)pyridin-3-yl)methoxy) -benzofuran-3-carboxamide]
26 | < 1000 | Cc1oc2ccc(OCc3cccnc3C(F)(F)F)cc2c1C(=O)OCC1(N)CCOC1 (centres unmarked) [compound 170, (3-aminotetrahydrofuran-3-yl)methyl 2-methyl-5-((2-(trifluoromethyl)pyridin-3-yl)methoxy) -benzofuran-3-carboxylate]
27 | < 1000 | Cc1ncsc1COc1ccc2oc(C)c(C(=O)Nc3ccnn3C)c2c1 [compound 171, 2-methyl-N-(1-methyl-1H-pyrazol-5-yl)-5-((4-methylthiazol-5-yl)methoxy)benzofuran-3-carboxamide]
28 | < 1000 | Cc1oc2ccc(OCc3cccnc3C(F)(F)F)cc2c1C(=O)NC1CC2(CNC2)C1 [compound 173, 2-methyl-N-(2-azaspiro[3,3]heptan-6-yl)-5-((2-(trifluoromethyl)pyridin-3-yl)methoxy)benzofuran-3-carboxamide]
29 | < 1000 | Cc1ncsc1COc1cc2c(C(=O)NC3(CO)CCOCC3)c(C)oc2cc1Cl [compound 174, 6-chloro-N-(4-(hydroxymethyl)tetrahydro-2H-pyran-4-yl)-2-methyl-5-((4-methylthiazol-5-yl) -methoxy)benzofuran-3-carboxamide]
30 | < 1000 | Cc1oc2ccc(OCc3cccnc3C(F)(F)F)cc2c1C(=O)N[C@@H]1CN(C(=O)OCC(F)(F)F)CC1(F)F [compound 175, 2,2,2-trifluoroethyl (R)-3,3-difluoro-4-(2-methyl-5-((2-(trifluoromethyl)pyridin-3-yl)methoxy) -benzofuran-3-carboxamido)pyrrolidine-1-carboxylate]
31 | < 1000 | Cc1ncsc1COc1ccc2oc(C)c(C(=O)NC3(CO)CCOCC3)c2c1F [compound 177, 4-fluoro-N-(4-(hydroxymethyl)tetrahydro-2H-pyran-4-yl)-2-methyl-5-((4-methylthiazol-5-yl) -methoxy)benzofuran-3-carboxamide]
32 | < 1000 | Cc1ncsc1COc1cc2c(C(=O)NC3(CO)CCOCC3)c(C)oc2cc1F [compound 182, 6-fluoro-N-(4-(hydroxymethyl)tetrahydro-2H-pyran-4-yl)-2-methyl-5-((4-methylthiazol-5-yl)methoxy)benzofuran-3-carboxamide]
33 | > 20000 | Cc1ncsc1COc1ccc2oc(C)c(C(=O)n3ccc(N)n3)c2c1 [compound 192, (3-amino-1H-pyrazol-1-yl) (2-methyl-5-((4-methylthiazol-5-yl)methoxy)benzofuran-3-yl) -methanone]
34 | > 20000 | Cc1ncsc1COc1ccc2oc(C)c(C(=O)NC3(CO)CCOCC3)c2c1C#N [compound 193]
35 | > 20000 | Cc1ncsc1COc1cc2c(C(=O)NC3(CO)CCOCC3)c(C)oc2cc1C#N [compound 194, 6-cyano-N-(4-(hydroxymethyl)tetrahydro-2H-pyran-4-yl)-2-methyl-5-((4-methylthiazol-5-yl) -methoxy)benzofuran-3-carboxamide]
